Assay results from US20040110732A1, “Pharmaceutical composition for transdermal or transmucosal administration comprising at least one progestin and/or at least one oestrogen, process for preparing it and uses thereof” (BESINS INTERNATIONAL BELGIQUE, priority 2002, published 2004).

Assay: In vitro percutaneous absorption of 3H estradiol in Franz-type diffusion cells
Procedure: The in vitro percutaneous absorption was studied quantitatively on biopsies of dermatomed human ventral skin, placed in a 1.77 cm^2 Franz static diffusion cell, which allows the dermis to be placed in contact with a survival liquid into which the substance absorbed through the skin will be dosed. The survival liquid consists of a solution of 9 g/L sodium chloride supplemented with 15 g/L of serum albumin. The cells are placed under ambient atmosphere and thermostatically maintained at 37° C. 10 μl of preparation are applied to the entire surface of the epidermis circumscribed by the glass cylinder. During the experiment, samples of the survival liquid are taken at times 2 h, 4 h, 6 h, 8 h and 24 h. For each time, the survival liquid taken is replaced with fresh liquid.

C[C@]12CC[C@@H]3c4ccc(O)cc4CC[C@H]3[C@@H]1CC[C@@H]2O [estradiol, 17β-estradiol]
cumulative absorption at 24 hours of estradiol (control of the ethylglycolic acid test: aqueous-alcoholic estradiol 0.06% solution without hydroxy acid): 5.26%±1.26%
percutaneous absorption of estradiol (control of the glycolic acid test: aqueous-alcoholic estradiol 0.06% solution without hydroxy acid): 6.96%±2.95%
percutaneous absorption of estradiol at 24 hours (control of the lactic acid test: aqueous-alcoholic solution of estradiol 0.06%, 50% absolute alcohol, no hydroxy acid): 5.50%±1.76%
cumulative absorption at 24 hours of estradiol (ethylglycolic acid at 5%, estradiol 0.06%): 8.90%±1.29%
percutaneous absorption of estradiol (glycolic acid at 5% in aqueous-alcoholic solution containing 40% absolute ethanol, estradiol 0.06%): 17.73%±2.96%
flows between 8 and 24 hours (lactic acid at 5% in 50% ethanol solution, compared with the control): significantly increasing
percutaneous absorption of estradiol at 24 hours (lactic acid at 5% in aqueous-alcoholic solution containing 50% ethanol, estradiol 0.06%): 13.80%±6.78%
